Laboratory results published in US20150105252A1, “SUBSTITUTED PYRAZOLES AS HERBICIDES” (E I DU PONT DE NEMOURS AND COMPANY, priority 2013, published 2015).

Assays:
crabgrass, large = test: Test A preemergence; format: in vivo, Digitaria sanguinalis; conditions: preemergence
How it was run: (§1)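 Ratings express plant response from 0 (no effect) to 100 (complete control), judged visually against untreated controls after approximately 10 days in the greenhouse. Preemergence applications were made as directed soil sprays onto seeded loam–sand mix, and postemergence applications onto 2–10 cm plants at one- to two-leaf stage.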

foxtail, giant [1] = test: Test A preemergence; format: in vivo, Setaria faberii; conditions: preemergence
How it was run: as §1

pigweed = test: Test A preemergence; format: in vivo, Amaranthus retroflexus; conditions: preemergence
How it was run: as §1

velvetleaf = test: Test A preemergence; format: in vivo, Abutilon theophrasti; conditions: preemergence
How it was run: as §1

wheat [2] = test: Test A preemergence; format: in vivo, Triticum aestivum; conditions: preemergence
How it was run: as §1

corn = test: Test A preemergence; format: in vivo, Zea mays; conditions: preemergence
How it was run: as §1

barnyardgrass = test: Test A postemergence; format: in vivo, Echinochloa crus-galli
How it was run: as §1

foxtail, giant [3] = test: Test A postemergence; format: in vivo, Setaria faberii
How it was run: as §1

wheat [4] = test: Test A postemergence; format: in vivo, Triticum aestivum
How it was run: as §1

rice = test: Test B flood; format: in vivo, Oryza sativa; conditions: 250 g ai/ha, visual rating on 0 to 100 scale (0 no effect, 100 complete control), 13 to 15 days
How it was run: (§2)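 Plants were grown to the 2-leaf stage and pots flooded to 3 cm above soil. Compounds were applied directly into the paddy water, with depth kept for the test. After 13–15 days in greenhouse, response was rated visually against controls on a 0 (no effect) to 100 (complete control) scale.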

sedge, umbrella = test: Test B flood; format: in vivo, Cyperus difformis; conditions: 250 g ai/ha, visual rating on 0 to 100 scale (0 no effect, 100 complete control), 13 to 15 days
How it was run: as §2

ducksalad = test: Test B flood; format: in vivo, Heteranthera limosa; conditions: 250 g ai/ha, visual rating on 0 to 100 scale (0 no effect, 100 complete control), 13 to 15 days
How it was run: as §2

morningglory = test: Test C preemergence; format: in vivo, Ipomoea coccinea; conditions: preemergence; for Plant response rating, Morningglory: 125 g ai/ha, scale 0 to 100, 0 = no effect, 100 = complete control
How it was run: (§3)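 Postemergence values come from plants sprayed at the 1- to 4-leaf stage (2–18 cm) in peat moss–vermiculite medium; preemergence values from seeds treated in a loam–sand blend. Both evaluated visually against controls after 13–15 greenhouse days, scale 0–100.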

nutsedge, yellow = test: Test C preemergence; format: in vivo, Cyperus esculentus; conditions: preemergence; for Plant response rating, Nutsedge, Yellow: 125 g ai/ha, scale 0 to 100, 0 = no effect, 100 = complete control
How it was run: as §3

ragweed = test: Test C preemergence; format: in vivo, Ambrosia elation; conditions: preemergence; for Plant response rating, Ragweed: 125 g ai/ha, scale 0 to 100, 0 = no effect, 100 = complete control
How it was run: as §3

[5] = 125 g ai/ha, visual injury, 0 to 100 scale, approx. 10 days
[6] = 500 g ai/ha, visual injury after approx. 10 days, 0 to 100 scale (0 no effect, 100 complete control)
[7] = Postemergence, 500 g ai/ha, 0 to 100 scale (0 no effect, 100 complete control)
[8] = postemergence, 125 g ai/ha, about 10 days, visual rating on 0 to 100 scale (0 no effect, 100 complete control)
[9] = 31 g ai/ha, visual rating, scale 0 to 100 (0 no effect, 100 complete control), 13 to 15 days
[10] = 62 g ai/ha, scale 0 to 100 (0 no effect, 100 complete control), 13 to 15 days
[11] = 250 g ai/ha, scale 0 to 100, 0 is no effect, 100 is complete control
[12] = 125 g ai/ha, visual injury approx. 10 days after treatment

Compound	Crabgrass, Large plant response rating (crabgrass, large; [6])	Foxtail, Giant plant response rating (foxtail, giant [1]; [6])	Pigweed plant response rating (pigweed; [6])	Velvetleaf plant response rating (velvetleaf; [6])	Wheat plant response rating (wheat [2]; [6])	Corn plant response rating (corn; [6])	Barnyardgrass plant response rating (barnyardgrass; [7])	Barnyardgrass plant response rating (barnyardgrass; [8])	Foxtail, Giant plant response rating (foxtail, giant [3]; [7])	Foxtail, Giant plant response rating (foxtail, giant [3]; [8])	Wheat plant response rating (wheat [4]; [7])	Wheat plant response rating (wheat [4]; [8])	Plant response rating, Rice (rice)	Plant response rating, Sedge, Umbrella (sedge, umbrella)	Plant response rating, Ducksalad (ducksalad)	Morningglory plant response rating (morningglory; [9])	Morningglory plant response rating (morningglory; [10])	Plant response rating, Morningglory (morningglory; 13 to 15 days)	Morningglory plant response rating (morningglory; [11])	Nutsedge, Yellow plant response rating (nutsedge, yellow; [9])	other results
CCc1cc(C(=O)NC(C)C)nn1Cc1ccnc(C(F)(F)F)c1 [Compound 139]	100	100	100	100	100	90	90	80	90	90	90	50	50	100	100	5	35	98	98	15	Crabgrass, Large plant response rating (crabgrass, large; [5]): 100; Foxtail, Giant plant response rating (foxtail, giant [1]; [5]): 100; Pigweed plant response rating (pigweed; [5]): 100; Velvetleaf plant response rating (velvetleaf; [5]): 30; Wheat plant response rating (wheat [2]; [5]): 50; Corn plant response rating (corn; [5]): 30; Nutsedge, Yellow plant response rating (nutsedge, yellow; [10]): 10; Plant response rating, Nutsedge, Yellow (nutsedge, yellow; 13 to 15 days): 35; Nutsedge, Yellow plant response rating (nutsedge, yellow; [11]): 50; Ragweed plant response rating (ragweed; [9]): 15; Ragweed plant response rating (ragweed; [10]): 75; Plant response rating, Ragweed (ragweed; 13 to 15 days): 90; Ragweed plant response rating (ragweed; [11]): 95
O=C(NCC(F)(F)F)c1cc(CCCl)n(Cc2ccnc(C(F)(F)F)c2)n1 [Compound 143]	100	100	100	100	100	80	90	60	90	90	80	60	25	95	100	100	100	100	100	30	Crabgrass, Large plant response rating (crabgrass, large; [5]): 100; Foxtail, Giant plant response rating (foxtail, giant [1]; [5]): 100; Pigweed plant response rating (pigweed; [5]): 100; Velvetleaf plant response rating (velvetleaf; [5]): 50; Wheat plant response rating (wheat [2]; [5]): 70; Corn plant response rating (corn; [5]): 50; Nutsedge, Yellow plant response rating (nutsedge, yellow; [10]): 40; Plant response rating, Nutsedge, Yellow (nutsedge, yellow; 13 to 15 days): 80; Nutsedge, Yellow plant response rating (nutsedge, yellow; [11]): 90; Ragweed plant response rating (ragweed; [9]): 98; Ragweed plant response rating (ragweed; [10]): 98; Plant response rating, Ragweed (ragweed; 13 to 15 days): 95; Ragweed plant response rating (ragweed; [11]): 100
CCCNC(=O)c1cc(CCCl)n(Cc2ccnc(C(F)(F)F)c2)n1 [Compound 145]	100	100	100	80	100	60	90	60	90	90	80	50	25	95	100	80	100	100	100	10	Crabgrass, Large plant response rating (0 to 100 scale) (crabgrass, large; [12]): 100; Foxtail, Giant plant response rating (0 to 100 scale) (foxtail, giant [1]; [12]): 100; Pigweed plant response rating (0 to 100 scale) (pigweed; [12]): 100; Velvetleaf plant response rating (0 to 100 scale) (velvetleaf; [12]): 50; Wheat plant response rating (0 to 100 scale) (wheat [2]; [12]): 40; Corn plant response rating (0 to 100 scale) (corn; [12]): 30; Nutsedge, Yellow plant response rating (nutsedge, yellow; [10]): 75; Plant response rating, Nutsedge, Yellow (nutsedge, yellow; 13 to 15 days): 60; Nutsedge, Yellow plant response rating (nutsedge, yellow; [11]): 90; Ragweed plant response rating (ragweed; [9]): 75; Ragweed plant response rating (ragweed; [10]): 95; Plant response rating, Ragweed (ragweed; 13 to 15 days): 95; Ragweed plant response rating (ragweed; [11]): 98
